The source of these data is BindingDB's records for doi:10.1016/s0960-894x(02)01027-2 (Glaxosmithkline, 2003).

Structures are written as SMILES. Where only a bound is given, the exact number is not on record here.

One experiment addresses Methionine--tRNA ligase (Staphylococcus aureus). Description: Compound tested for inhibition of Staphylococcus aureus MRS(methionyl tRNA synthetase) in aminoacylation assay.
As a reminder, the IC50 is the midpoint of a concentration-inhibition curve. Low values mean greater potency in that assay, high ones weaker potency in that assay. `C=CCOc1c(Cl)cc(Cl)cc1CNCCCNc1cc(O)c2ccccc2n1` [2-[3-(2-Allyloxy-3,5-dichloro-benzylamino)-propylamino]-1H-quinolin-4-one] came in with an IC50 of 7.2 nM.
In turn, `Oc1cc(NCCCNCc2ccccc2)nc2ccccc12` [2-(3-Benzylamino-propylamino)-1H-quinolin-4-one] yielded an IC50 of 300 nM.
Same read-out and setting: under `Oc1cc(NCCCOCc2ccc(Cl)c(Cl)c2)nc2ccccc12` [2-[3-(3,4-Dichloro-benzyloxy)-propylamino]-1H-quinolin-4-one] stands 50 nM.
Take `CCOc1c(Br)cc(SC)cc1CNCCCNc1cc(O)c2ccccc2n1` [2-[3-(3-Bromo-2-ethoxy-5-methylsulfanyl-benzylamino)-propylamino]-1H-quinolin-4-one]: the IC50 is 4.7 nM.
Turning to `CCOc1c(Cl)cc(Cl)cc1CNCCCNc1cc(O)c2ccccc2n1` [2-[3-(3,5-Dichloro-2-ethoxy-benzylamino)-propylamino]-1H-quinolin-4-one], the IC50 was determined as 14 nM.
Same read-out and setting: for `CCOc1c(Br)cc(C#N)cc1CNCCCNc1cc(O)c2ccccc2n1` [3-Bromo-4-ethoxy-5-{[3-(4-oxo-1,4-dihydro-quinolin-2-ylamino)-propylamino]-methyl}-benzonitrile] the value was 4.6 nM; for `Oc1cc(NCCCNCc2cc(Cl)cc(Cl)c2)nc2ccccc12` [2-[3-(3,5-Dichloro-benzylamino)-propylamino]-1H-quinolin-4-one], 3 nM; for `Nc1c(Br)cc(Br)cc1CNCCCNc1cc(O)c2ccccc2n1` [2-[3-(2-Amino-3,5-dibromo-benzylamino)-propylamino]-1H-quinolin-4-one], 9.1 nM.
The molecule `Oc1cc(NCCCSCc2ccc(Cl)c(Cl)c2)nc2ccccc12` [2-[3-(3,4-Dichloro-benzylsulfanyl)-propylamino]-1H-quinolin-4-one] had an IC50 of 170 nM.
`Oc1cc(NCCCNCc2cc(Cl)ccc2Cl)nc2ccccc12` [2-[3-(2,5-Dichloro-benzylamino)-propylamino]-1H-quinolin-4-one] showed an IC50 of 9 nM.
For `CCNc1c(Br)cc(Br)cc1CNCCCNc1cc(O)c2ccccc2n1` [2-[3-(3,5-Dibromo-2-ethylamino-benzylamino)-propylamino]-1H-quinolin-4-one], the 50% inhibitory concentration (IC50) is 18 nM.
Regarding `CCOc1c(Br)cc(I)cc1CNCCCNc1cc(O)c2ccccc2n1` [2-[3-(3-Bromo-2-ethoxy-5-iodo-benzylamino)-propylamino]-1H-quinolin-4-one], 8.8 nM corresponded to half-maximal inhibition (IC50).
For `CCOc1c(Br)cc(OC)cc1CNCCCNc1cc(O)c2ccccc2n1` [2-[3-(3-Bromo-2-ethoxy-5-methoxy-benzylamino)-propylamino]-1H-quinolin-4-one], the IC50 stood at 3.1 nM.
Take `Oc1cc(NCCCNCc2cc(Br)cc(Br)c2OCC(F)(F)F)nc2ccccc12` [2-{3-[3,5-Dibromo-2-(2,2,2-trifluoro-ethoxy)-benzylamino]-propylamino}-1H-quinolin-4-one]: inhibition was half-maximal at 11 nM (IC50).
In the case of `CCOc1c(Br)cc(Br)cc1CNCCCNc1cc(O)c2ccccc2n1` [2-[3-(3,5-Dibromo-2-ethoxy-benzylamino)-propylamino]-1H-quinolin-4-one], the IC50 was determined as 4.4 nM.
The molecule `CNc1c(Br)cc(Br)cc1CNCCCNc1cc(O)c2ccccc2n1` [2-[3-(3,5-Dibromo-2-methylamino-benzylamino)-propylamino]-1H-quinolin-4-one] registered an IC50 of 11 nM.
With `CCOc1c(Br)cc(C)cc1CNCCCNc1cc(O)c2ccccc2n1` [2-[3-(3-Bromo-2-ethoxy-5-methyl-benzylamino)-propylamino]-1H-quinolin-4-one], the IC50 came out at 4.9 nM.
Regarding `CCOc1cc(Br)c(OCC)c(CNCCCNc2cc(O)c3ccccc3n2)c1` [2-[3-(3-Bromo-2,5-diethoxy-benzylamino)-propylamino]-1H-quinolin-4-one], the IC50 amounted to 61 nM.
Still for that read-out and setting: for `CCOc1c(Cl)cc(OC)cc1CNCCCNc1cc(O)c2ccccc2n1` [2-[3-(3-Chloro-2-ethoxy-5-methoxy-benzylamino)-propylamino]-1H-quinolin-4-one] the value was 4.3 nM; for `O=C(NCCCNc1cc(O)c2ccccc2n1)c1ccc(Cl)c(Cl)c1` [3,4-Dichloro-N-[3-(4-oxo-1,4-dihydro-quinolin-2-ylamino)-propyl]-benzamide], 140 nM.

For the next experiment the target is unchanged. The experiment is described as above. This is another data set of the same source.
Turning to `CCOc1c(I)cc(I)cc1CNCCCNc1cc(O)c2ccccc2n1`, the IC50 is below 3 nM.
`Oc1cc(NCCCNCc2cc(Cl)cc(Cl)c2Cl)nc2ccccc12`: the IC50 is below 3 nM.
The molecule `Oc1cc(NCCCNCc2cc(Br)cc(Br)c2)nc2ccccc12` displayed an IC50 below 3 nM.
